We go through one substance from PMC10362274 (iScience, 2023).

The target in this assay is HLA-A∗02:01 (Homo sapiens, UniProt P04439, D140Y/D185E/D98H/E176V/E277Q/G131W/G231S/I119V/I121R/I166T/I218V/L300P/L318F/N151K/N90K/P208A/P217A/Q86G/Q94H/R138H/R169H/T345S). It counts as binding. The settings on record: n = 2.

With YM2SODGTM6SOSQV [M2SOM6SO], the “IC50 compared with the native peptide” value is on record as “increased”.
